Data as given in patent US20060069132A1, “Azolecarboxamide herbicides” (priority 2004, published 2006).
Like-named read-outs stand apart in the source and are kept apart here.

Tests used:
[1] = test system: smallflower umbrella sedge; assay: Test C flooded paddy test; type: in vivo, Cyperus difformis
rice [2] = assay: Test B pre-/postemergence herbicide test; type: in vivo, Oryza sativa; conditions: 0 = no effect, 100 = complete control
Outline: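 Plants compared with untreated controls 13–15 days post-treatment and given a visual 0–100 injury score. Applications: preemergence to seeds; postemergence at 1- to 4-leaf (2–18 cm); paddy species flooded, 2-leaf stage. Vehicle non-phytotoxic, surfactant included.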

rice [3] = assay: Test C flooded paddy test; type: in vivo, Oryza sativa
Outline: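 Injury scored visually against controls on a 0 (no effect) to 100 (complete control) scale, 12 to 14 days after treatment in greenhouse. Flooded paddy plants treated at 2-leaf stage; postemergence plants at 1- to 4-leaf stage, 2 to 18 cm tall.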

goosegrass = assay: Test C pre-/postemergence herbicide test; type: in vivo, Eleusine indica
Outline: (§1)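 Visual injury scores run from 0 (no effect) to 100 (complete control), assessed relative to untreated controls 12 to 14 days after treatment in the greenhouse. Chemicals were formulated in a non-phytotoxic solvent mixture with surfactant and applied to soil after planting or to emerged plants at the 1- to 4-leaf stage.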

soybean = assay: Test C pre-/postemergence herbicide test; type: in vivo, Glycine max
Outline: as §1

yellow nutsedge = assay: Test C pre-/postemergence herbicide test; type: in vivo, Cyperus esculentus
Outline: as §1

eastern black nightshade = assay: Test C pre-/postemergence herbicide test; type: in vivo, Solanum ptycanthum
Outline: as §1

morningglory = assay: Test A pre-/postemergence herbicide test; type: in vivo, Ipomoea spp.; conditions: for pest or weed control at 500 g/ha / pest or weed control at 2000 g/ha: Ipomoea, 240 h
Outline: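 Pre: seeded sandy loam, directed soil spray, compound in non-phytotoxic solvent + surfactant. Post: 1–2-leaf plants (2–10 cm), sprayed to runoff. Greenhouse ~10 d; visual injury vs untreated, 0–100 scale.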

[4] = 125 g ai/ha, scale 0 to 100 (0 no effect, 100 complete control)
[5] = 250 g ai/ha, scale of 0 to 100, 0 is no effect, 100 is complete control
[6] = 500 g ai/ha, visual rating after 12 to 14 days, scale 0 to 100 (0 no effect, 100 complete control)
[7] = 62 g ai/ha, preemergence, scale 0 to 100
[8] = 125 g ai/ha, scale 0 (no effect) to 100 (complete control), visual, 12 to 14 days, preemergence
[9] = 250 g ai/ha, scale 0-100, preemergence

Work on `CCN1N=C(C(C)(C)C)CC1C(=O)Nc1cc(C(=O)N(C)C)ccc1F` (stereo not shown) [Compound 268, N-[5-[(dimethylamino)carbonyl]-2-fluorophenyl]-3-(1,1-dimethylethyl)-1-ethyl-4,5-dihydro-1H-pyrazole-5-carboxamide] yielded a pest or weed control at 62 g/ha ([1]; Cyperus difformis, 62 g ai/ha, scale 0 to 100, read-out: Sedge, Umbrella plant response rating) of 55%, a pest or weed control at 125 g/ha ([1]; Cyperus difformis, 125 g ai/ha, scale 0 to 100 (0 no effect, 100 complete control), read-out: Sedge, Umbrella plant response rating) of 70% and a pest or weed control at 250 g/ha ([1]; Cyperus difformis, 250 g ai/ha, scale of 0 to 100, 0 is no effect, 100 is complete control, read-out: Sedge, Umbrella plant response rating) of 80%. For the same molecule, the pest or weed control at 500 g/ha ([1]; Cyperus difformis, 500 g ai/ha, visual rating after 12 to 14 days, scale 0 to 100 (0 no effect, 100 complete control), read-out: Plant response rating, Sedge, Umbrella) was 95%, the plant injury at 125 g/ha (rice [2]; Oryza sativa, pre-emergence, 336 h, 125 g ai/ha, read-out: Rice plant response rating (0 to 100 scale)) was 90% and the plant injury at 500 g/ha (rice [2]; Oryza sativa, pre-emergence, 336 h, 500 g ai/ha, visual rating, read-out: Plant response rating, Rice) was 90%. It also gave a plant injury at 62 g/ha (rice [3]; Oryza sativa, 62 g ai/ha, scale 0 to 100, read-out: Rice plant response rating) of 75%, a plant injury at 125 g/ha (rice [3]; Oryza sativa, 125 g ai/ha, scale 0 to 100 (0 no effect, 100 complete control), read-out: Rice plant response rating) of 85% and a plant injury at 250 g/ha (rice [3]; Oryza sativa, 250 g ai/ha, scale of 0 to 100, 0 is no effect, 100 is complete control, read-out: Rice plant response rating) of 90%. The plant injury at 500 g/ha (rice [3]; Oryza sativa, 500 g ai/ha, visual rating after 12 to 14 days, scale 0 to 100 (0 no effect, 100 complete control), read-out: Plant response rating, Rice) was 90%, the pest or weed control at 62 g/ha (goosegrass; Eleusine indica, pre-emergence, 312 h, 62 g ai/ha, preemergence, scale 0 to 100, read-out: Plant response rating, Goosegrass) was 85% and the pest or weed control at 125 g/ha (goosegrass; Eleusine indica, pre-emergence, 312 h, 125 g ai/ha, scale 0 (no effect) to 100 (complete control), visual, 12 to 14 days, read-out: Plant response rating, Goosegrass) was 90%. It also gave a pest or weed control at 250 g/ha (goosegrass; Eleusine indica, pre-emergence, 312 h, 250 g ai/ha, scale 0-100, read-out: Plant response rating, Goosegrass) of 100%, a pest or weed control at 500 g/ha (goosegrass; Eleusine indica, pre-emergence, 312 h, 500 g ai/ha, scale 0 to 100 (0 no effect, 100 complete control), visual, 12 to 14 days, read-out: Plant response rating, Goosegrass) of 100% and a plant injury at 62 g/ha (soybean; Glycine max, pre-emergence, 62 g ai/ha, preemergence, scale 0 to 100, read-out: Plant response rating, Soybean) of 60%. For the same molecule, the plant injury at 250 g/ha (soybean; Glycine max, pre-emergence, 250 g ai/ha, scale 0-100, read-out: Plant response rating, Soybean) was 90%, the plant injury at 500 g/ha (soybean; Glycine max, pre-emergence, 500 g ai/ha, scale 0 to 100 (0 no effect, 100 complete control), visual, 12 to 14 days, read-out: Plant response rating, Soybean) was 95% and the pest or weed control at 62 g/ha (yellow nutsedge; Cyperus, pre-emergence, 62 g ai/ha, preemergence, scale 0 to 100, read-out: Plant response rating, Nutsedge, Yellow) was 30%. The pest or weed control at 125 g/ha (yellow nutsedge; Cyperus, pre-emergence, 125 g ai/ha, scale 0 (no effect) to 100 (complete control), visual, 12 to 14 days, read-out: Plant response rating, Nutsedge, Yellow) was 50%, the pest or weed control at 250 g/ha (yellow nutsedge; Cyperus, pre-emergence, 250 g ai/ha, scale 0-100, read-out: Plant response rating, Nutsedge, Yellow) was 60% and the pest or weed control at 500 g/ha (yellow nutsedge; Cyperus, pre-emergence, 500 g ai/ha, scale 0 to 100 (0 no effect, 100 complete control), visual, 12 to 14 days, read-out: Plant response rating, Nutsedge, Yellow) was 70%. The pest or weed control at 62 g/ha (eastern black nightshade; pre-emergence, 62 g ai/ha, preemergence, scale 0 to 100, read-out: Plant response rating, Nightshade) was 100%, the pest or weed control at 125 g/ha (eastern black nightshade; pre-emergence, 125 g ai/ha, scale 0 (no effect) to 100 (complete control), visual, 12 to 14 days, read-out: Plant response rating, Nightshade) was 100% and the pest or weed control at 250 g/ha (eastern black nightshade; pre-emergence, 250 g ai/ha, scale 0-100, read-out: Plant response rating, Nightshade) was 100%. For the same molecule, the pest or weed control at 500 g/ha (eastern black nightshade; pre-emergence, 500 g ai/ha, scale 0 to 100 (0 no effect, 100 complete control), visual, 12 to 14 days, read-out: Plant response rating, Nightshade) was 100%, the pest or weed control at 500 g/ha (morningglory; post-emergence, Postemergence, 500 g ai/ha, 0 to 100 scale, 0 no effect, 100 complete control, read-out: Morningglory plant response rating) was 20% and the pest or weed control at 2000 g/ha (morningglory; post-emergence, Postemergence, 2000 g ai/ha, 0 to 100 scale, 0 no effect, 100 complete control, read-out: Plant response rating, Morningglory) was 40%. The pest or weed control at 2000 g/ha (morningglory; pre-emergence, Preemergence, 2000 g ai/ha, visual rating, 0 to 100 scale (0 no effect, 100 complete control), read-out: Morningglory plant response rating) was 25% and the pest or weed control at 500 g/ha (morningglory; pre-emergence, preemergence, 500 g ai/ha, visual injury, 0 to 100 scale (0 no effect, 100 complete control), read-out: Morningglory plant response rating) was 5%.
With `CCNC(=O)c1ccc(F)c(NC(=O)c2cc(C3(C)CC3)nn2CC)c1` [Compound 300] the “Sedge, Umbrella plant response rating” value ([1]; 62 g ai/ha, scale 0 to 100) was 80, the “Sedge, Umbrella plant response rating” value [1, 4] was 80 and the “Sedge, Umbrella plant response rating” value [1, 5] was 85. For the same molecule, the “Plant response rating, Sedge, Umbrella” value [1, 6] was 90, the “Rice plant response rating (0 to 100 scale)” value (rice [2]; 125 g ai/ha, preemergence) was 40 and the “Plant response rating, Rice” value (rice [2]; 500 g ai/ha, visual rating, preemergence) was 70. For the same molecule, the “Rice plant response rating” value (rice [3]; 62 g ai/ha, scale 0 to 100) was 40, the “Rice plant response rating” value (rice [3]; [4]) was 55 and the “Rice plant response rating” value (rice [3]; [5]) was 70. For the same molecule, the “Plant response rating, Rice” value (rice [3]; [6]) was 75, the “Plant response rating, Goosegrass” value (goosegrass; [7]) was 85 and the “Plant response rating, Goosegrass” value (goosegrass; [8]) was 100. The “Plant response rating, Goosegrass” value (goosegrass; [9]) was 100, the “Plant response rating, Soybean” value (soybean; [7]) was 0 and the “Plant response rating, Soybean” value (soybean; [9]) was 70. For the same molecule, the “Plant response rating, Nutsedge, Yellow” value (yellow nutsedge; 31 g ai/ha, scale 0 to 100, last section of Table C, preemergence) was 0, the “Plant response rating, Nutsedge, Yellow” value (yellow nutsedge; [7]) was 0 and the “Plant response rating, Nutsedge, Yellow” value (yellow nutsedge; [8]) was 20. The “Plant response rating, Nutsedge, Yellow” value (yellow nutsedge; [9]) was 60, the “Plant response rating, Nightshade” value (eastern black nightshade; [7]) was 100 and the “Plant response rating, Nightshade” value (eastern black nightshade; [8]) was 100. The “Plant response rating, Nightshade” value (eastern black nightshade; [9]) was 100, the “Morningglory plant response rating” value (morningglory; Postemergence, 500 g ai/ha, 0 to 100 scale, 0 no effect, 100 complete control) was 80 and the “Plant response rating, Morningglory” value (morningglory; Postemergence, 2000 g ai/ha, 0 to 100 scale, 0 no effect, 100 complete control) was 95. For the same molecule, the “Morningglory plant response rating” value (morningglory; Preemergence, 2000 g ai/ha, visual rating, 0 to 100 scale (0 no effect, 100 complete control)) was 100 and the “Morningglory plant response rating” value (morningglory; preemergence, 500 g ai/ha, visual injury, 0 to 100 scale (0 no effect, 100 complete control)) was 90.
